Source: DBAASP
Converted amounts (≈) assume the structure as drawn.

How the values were obtained:
Assay in all cases: ≥ marks a high value that may be exact or a test limit, other limits are often not marked, values filed in µg/mL are converted to µM
[1] = system: Staphylococcus aureus ATCC 25923
[2] = system: Pseudomonas aeruginosa CMCCB 10104
[3] = system: Candida albicans ATCC 2002
[4] = system: Escherichia coli ATCC 25922
[5] = system: Pseudomonas aeruginosa ATCC 9027
[6] = system: Bacillus subtilis ATCC 23857
[7] = system: Klebsiella pneumoniae ATCC 700603
[8] = system: Candida albicans ATCC 10231
[9] = system: Escherichia coli NCTC 10418
[10] = system: Staphylococcus aureus NCTC 10788

MIC [1] [µM]	MIC [2] [µM]	MIC [3] [µM]	MIC [4] [µM]	MIC [5] [µM]	MIC [6] [µM]	MIC [7] [µM]	MIC [8] [µM]	MIC [9] [µM]	MIC [10] [µM]	SMILES
1.86 (≈ 6.3 µg/mL)	3.72 (≈ 12.6 µg/mL)	0.944 (≈ 3.2 µg/mL)	1.86 (≈ 6.3 µg/mL)							CC[C@H](C)[C@H](NC(=O)[C@H](C)NC(=O)[C@H](CCSC)NC(=O)[C@H](CC(N)=O)NC(=O)[C@H](CCCCN)NC(=O)[C@H](Cc1ccccc1)NC(=O)[C@@H](NC(=O)[C@H](CC(=O)O)NC(=O)[C@H](CC(C)C)NC(=O)[C@H](CC(C)C)NC(=O)CN)[C@@H](C)O)C(=O)N[C@@H](CC(N)=O)C(=O)N[C@@H](C)C(=O)N[C@@H](C)C(=O)N[C@@H](Cc1cnc[nH]1)C(=O)NCC(=O)N[C@@H](C)C(=O)NCC(=O)N[C@H](C(=O)N[C@@H](CO)C(=O)N[C@H](C(=O)N[C@@H](CC(C)C)C(=O)N[C@@H](CC(N)=O)C(=O)N[C@@H](C)C(=O)N[C@@H](CC(C)C)C(=O)N[C@@H](CO)C(=O)N[C@H]1CSSC[C@@H](C(=O)O)NC(=O)[C@H]([C@@H](C)O)NC(=O)[C@H](CCCCN)NC(=O)[C@H](CCCCN)NC(=O)[C@H](CC(C)C)NC(=O)[C@H](CCCCN)NC1=O)C(C)C)C(C)C [GLLDTFKNMAINAAHGAGVSVLNALSCKLKKTC]
1.96 (≈ 6.6 µg/mL)	1.96 (≈ 6.6 µg/mL)	1.96 (≈ 6.6 µg/mL)	3.92 (≈ 13.2 µg/mL)							CSCC[C@H](NC(=O)[C@H](CC(N)=O)NC(=O)[C@H](CCCCN)NC(=O)[C@H](Cc1ccccc1)NC(=O)[C@@H](NC(=O)[C@H](CC(=O)O)NC(=O)[C@H](CC(C)C)NC(=O)[C@H](CC(C)C)NC(=O)CN)[C@@H](C)O)C(=O)N[C@@H](C)C(=O)N[C@@H](CC(C)C)C(=O)N[C@@H](CC(N)=O)C(=O)N[C@@H](C)C(=O)N[C@@H](C)C(=O)N[C@@H](CCCCN)C(=O)N[C@@H](CO)C(=O)N[C@@H](C)C(=O)NCC(=O)N[C@H](C(=O)N[C@@H](CO)C(=O)N[C@H](C(=O)N[C@@H](CC(C)C)C(=O)N[C@@H](CC(N)=O)C(=O)N[C@@H](C)C(=O)N[C@@H](CC(C)C)C(=O)N[C@@H](CO)C(=O)N[C@H]1CSSC[C@@H](C(=O)O)NC(=O)[C@H]([C@@H](C)O)NC(=O)[C@H](CCCCN)NC(=O)[C@H](CO)NC(=O)[C@H](CC(C)C)NC(=O)[C@H](CCCCN)NC1=O)C(C)C)C(C)C [GLLDTFKNMALNAAKSAGVSVLNALSCKLSKTC]
4 (≈ 5.86 µg/mL)			4 (≈ 5.86 µg/mL)	8 (≈ 11.7 µg/mL)	4 (≈ 5.86 µg/mL)	8 (≈ 11.7 µg/mL)				CC[C@H](C)[C@H](NC(=O)[C@H](CCCCN)NC(=O)[C@H](CCCCN)NC(=O)[C@H](C)NC(=O)[C@@H](NC(=O)[C@H](C)NC(=O)[C@H](CC(C)C)NC(=O)[C@H](CC(C)C)NC(=O)[C@H](C)NC(=O)[C@H](CCCCN)NC(=O)[C@H](CC(C)C)NC(=O)[C@H](C)NC(=O)[C@@H](N)CC(C)C)C(C)C)C(=O)N[C@@H](CC(C)C)C(N)=O [LALKALLAVAKKIL]
> 152	≥ 152	≥ 152	> 152							CC(C)C[C@H](NC(=O)[C@H](Cc1c[nH]c2ccccc12)NC(=O)[C@@H]1CCCN1C(=O)[C@@H]1CCCN1C(=O)[C@H](CC(C)C)NC(=O)[C@@H](N)CC(C)C)C(=O)N[C@@H](CCCN=C(N)N)C(=O)N1CCC[C@H]1C(=O)N[C@@H](CCCN=C(N)N)C(=O)N[C@@H](CC(N)=O)C(=O)NCC(=O)O [LLPPWLRPRNG]
10.2 (≈ 20.4 µg/mL)	10.2 (≈ 20.4 µg/mL)	5.12 (≈ 10.2 µg/mL)	5.12 (≈ 10.2 µg/mL)							CC[C@H](C)[C@H](NC(=O)CN)C(=O)N[C@@H](CC(C)C)C(=O)N[C@@H](CO)C(=O)NCC(=O)N[C@@H](CC(C)C)C(=O)N[C@@H](CC(C)C)C(=O)NCC(=O)N[C@H](C(=O)NCC(=O)N[C@@H](CCCCN)C(=O)N[C@@H](CCSC)C(=O)N[C@@H](CC(C)C)C(=O)N[C@H](C(=O)N[C@H]1CSSC[C@@H](C(=O)O)NC(=O)[C@H](CC(C)C)NC(=O)CNC(=O)[C@H](CO)NC(=O)[C@H](CC(C)C)NC(=O)CNC1=O)C(C)C)C(C)C [GILSGLLGVGKMLVCGLSGLC]
1.79 (≈ 8.6 µg/mL)	1.79 (≈ 8.6 µg/mL)	1.79 (≈ 8.6 µg/mL)	1.79 (≈ 8.6 µg/mL)							CC[C@H](C)[C@H](NC(=O)CN)C(=O)N[C@@H](Cc1ccccc1)C(=O)N[C@@H](CO)C(=O)N[C@@H](CCCCN)C(=O)N[C@H](C(=O)N[C@@H](CO)C(=O)NCC(=O)N[C@@H](CCCCN)C(=O)N[C@@H](C)C(=O)N[C@H](C(=O)N[C@@H](CCCCN)C(=O)N[C@@H](CC(N)=O)C(=O)N[C@@H](CC(C)C)C(=O)N[C@@H](Cc1ccccc1)C(=O)N[C@H](C(=O)N[C@@H](CCCCN)C(=O)NCC(=O)N[C@@H](C)C(=O)N[C@@H](CCC(=O)O)C(=O)N[C@@H](CC(N)=O)C(=O)N[C@H](C(=O)NCC(=O)N[C@@H](CCCCN)C(=O)N[C@@H](Cc1cnc[nH]1)C(=O)N[C@H](C(=O)NCC(=O)N[C@@H](CCSC)C(=O)N[C@@H](CC(=O)O)C(=O)N[C@H](C(=O)N[C@H](C(=O)N[C@@H](CCCN=C(N)N)C(=O)N[C@H](C(=O)NCC(=O)N[C@H](C(=O)N[C@@H](CC(=O)O)C(=O)N[C@H](C(=O)N[C@H](C(=O)NCC(=O)N[C@H]1CSSC[C@@H](C(=O)O)NC(=O)[C@H](CCC(=O)O)NC(=O)CNC(=O)[C@H](CCCCN)NC(=O)[C@H]([C@@H](C)CC)NC(=O)[C@H](CCCCN)NC1=O)C(C)C)C(C)C)[C@@H](C)CC)[C@@H](C)O)C(C)C)C(C)C)C(C)C)C(C)C)[C@@H](C)CC)[C@@H](C)CC)[C@@H](C)CC [GIFSKISGKAIKNLFIKGAENVGKHVGMDVVRTGIDVVGCKIKGEC]
4 (≈ 5.8 µg/mL)			8 (≈ 11.6 µg/mL)	32 (≈ 46.4 µg/mL)	16 (≈ 23.2 µg/mL)	32 (≈ 46.4 µg/mL)				CC[C@H](C)[C@H](NC(=O)[C@H](CCCCN)NC(=O)[C@H](CCCCN)NC(=O)[C@H](C)NC(=O)[C@@H](NC(=O)[C@H](C)NC(=O)[C@H](CC(C)C)NC(=O)[C@H](CC(C)C)NC(=O)[C@H](C)NC(=O)[C@H](C)NC(=O)[C@H](CC(C)C)NC(=O)[C@H](CC(N)=O)NC(=O)[C@@H](N)CC(C)C)C(C)C)C(=O)N[C@@H](CC(C)C)C(N)=O [LNLAALLAVAKKIL]
2.6 (≈ 6.79 µg/mL)	10.4 (≈ 27.2 µg/mL)	2.6 (≈ 6.79 µg/mL)	1.3 (≈ 3.4 µg/mL)							CC[C@H](C)[C@@H]1NC(=O)[C@H](C)NC(=O)[C@@H](NC(=O)[C@H](Cc2ccccc2)NC(=O)[C@@H](NC(=O)[C@@H](NC(=O)[C@@H]2CCCN2C(=O)[C@H](CC(C)C)NC(=O)[C@@H](NC(=O)[C@H](Cc2cnc[nH]2)NC(=O)[C@@H](NC(=O)[C@H](C)NC(=O)[C@@H](NC(=O)[C@H](CC(C)C)NC(=O)[C@H](CC(C)C)NC(=O)[C@@H](NC(=O)[C@H](C)NC(=O)[C@@H]2CCCN2C(=O)[C@H](CC(C)C)NC(=O)[C@@H](N)Cc2ccccc2)C(C)C)C(C)C)[C@@H](C)O)C(C)C)[C@@H](C)O)C(C)C)CSSC[C@@H](C(=O)O)NC(=O)[C@H](CCCCN)NC(=O)[C@H](CCCN=C(N)N)NC(=O)[C@H]([C@@H](C)O)NC1=O [FLPAVLLVATHVLPTVFCAITRKC]
					≥ 362		> 362			C[C@H](N)C(=O)N[C@@H](C)C(=O)N[C@@H](CCCN=C(N)N)C(=O)N[C@@H](CCCN=C(N)N)C(=O)N[C@@H](C)C(=O)N[C@@H](C)C(=O)N[C@@H](CCCN=C(N)N)C(=O)N[C@@H](CCCN=C(N)N)C(=O)N[C@@H](C)C(=O)N[C@@H](C)C(=O)N[C@@H](CCCN=C(N)N)C(=O)N[C@@H](CCCN=C(N)N)C(N)=O [AARRAARRAARR]
								≥ 40	10 (≈ 14 µg/mL)	CC[C@H](C)[C@H](NC(=O)[C@@H](NC(=O)[C@@H]1CCCN1C(=O)[C@H](CC(C)C)NC(=O)[C@@H](N)Cc1ccccc1)C(C)C)C(=O)N[C@@H](C)C(=O)NCC(=O)N[C@H](C(=O)N[C@@H](CC(C)C)C(=O)N[C@@H](CO)C(=O)N[C@@H](CCCCN)C(=O)N[C@@H](CC(C)C)C(=O)N[C@@H](Cc1ccccc1)C(N)=O)C(C)C [FLPVIAGVLSKLF]
